Experimental data as given in article PMC4931847, “Preclinical validation of a novel compound targeting p70S6 kinase in breast cancer” (Aging (Albany NY), 2016).

Assays:
MDA-MB-231 cells = assay: Soft agar anchorage-independent growth assay; format: cell-based, human; details: MDA-MB-231, soft agar, 3% WF, 10 or 20μM, three weeks
From the text: Vinculin was used as loading control. (B) Same as in (A) but the analysis was focused on STAT3 and Src signaling pathways. Actin was used as loading control. […] Two weeks later plates were stained with crystal violet and colonies photographed (C) and counted (D). […] After three weeks, colonies were photographed (E) and counted (F). Values reported in (D) and (F) represent the mean (± S.D.) of two independent experiments performed in duplicate. * p<0.05; ** p<0.01; *** p<0.001.
Both number and size of the colonies were affected, signifying that, in this context, activity of p70S6K was necessary for both survival and proliferation of breast cancer cells (Fig. 2E and F).
The experiments were performed in six-well tissue culture plates, in triplicate. Fresh medium was added to the wells twice a week as a feeder layer. After three weeks, the number of colonies was counted at 4X magnification.

[1] = tested on: breast cancer local relapse; set-up: method as in PMID 23899505, PMID 24661902, PMID 18316551; details: mouse model of breast cancer ref 9,10,24; cited from earlier work
advanced solid tumors = tested on: advanced solid tumors; set-up: method as in PMID 24456794, PMID 24440085; details: cited from earlier work

CCc1cncnc1N1CCN(Cc2nc3ccc(C(F)(F)F)cc3[nH]2)CC1 [PF-4708671]
ability to survive and grow in anchorage independence (MDA-MB-231 cells): significantly decreased
breast cancer local relapse [1]: strongly impaired

Cc1ccc(S(=O)(=O)O)cc1.Cn1cc(-c2ccc(F)c(C(F)(F)F)c2)nc1C1CCN(c2ncnc3[nH]ncc23)CC1 [LY2584702 tosylate]
clinical benefit (advanced solid tumors; alone or in combination with erlotinib or everolimus, phase I trials ref 11,12): very limited clinical benefit
tolerability (advanced solid tumors; particularly when administered with erlotinib ref 11,12): low tolerability
